Calls of active or inactive are those of the source. No cut-off for these calls is given here.
Legend:
[1] = target: Macrophage metalloelastase (Homo sapiens, UniProt P39900); assay: Biochemical assay (MMP12)
[2] = target: RAC-gamma serine/threonine-protein kinase (Homo sapiens) (UniProt Q9Y243); settings: Compound concentration 1000.0 nM
[3] = target: Serine/threonine-protein kinase BRSK1 (Homo sapiens) (UniProt Q8TDC3); settings: Compound concentration 1000.0 nM
[4] = target: Calcium/calmodulin-dependent protein kinase kinase 1 (Homo sapiens) (UniProt Q8N5S9); settings: Compound concentration 1000.0 nM
[5] = target: Cyclin-dependent kinase-like 2 (Homo sapiens) (UniProt Q92772); settings: Compound concentration 1000.0 nM
[6] = target: Dual specificity protein kinase CLK4 (Homo sapiens) (UniProt Q9HAZ1); settings: Compound concentration 1000.0 nM
[7] = target: Casein kinase I isoform gamma-2 (Homo sapiens) (UniProt P78368); settings: Compound concentration 1000.0 nM
[8] = target: Casein kinase I isoform gamma-3 (Homo sapiens) (UniProt Q9Y6M4); settings: Compound concentration 1000.0 nM
[9] = target: Megakaryocyte-associated tyrosine-protein kinase (Homo sapiens) (UniProt P42679); settings: Compound concentration 1000.0 nM
[10] = target: Serine/threonine-protein kinase DCLK2 (Homo sapiens) (UniProt Q8N568); settings: Compound concentration 1000.0 nM
[11] = target: Dual specificity tyrosine-phosphorylation-regulated kinase 2 (Homo sapiens) (UniProt Q92630); settings: Compound concentration 1000.0 nM
[12] = system: Epidermal growth factor receptor (Homo sapiens), P00533 [G719S]; settings: Compound concentration 1000.0 nM
[13] = system: Epidermal growth factor receptor (Homo sapiens), P00533 [UNDEFINED MUTATION]; settings: Compound concentration 1000.0 nM
[14] = target: Ephrin type-A receptor 7 (Homo sapiens) (UniProt Q15375); settings: Compound concentration 1000.0 nM
[15] = target: Tyrosine-protein kinase Fes/Fps (Homo sapiens) (UniProt P07332); settings: Compound concentration 1000.0 nM
[16] = target: Fibroblast growth factor receptor 4 (Homo sapiens) (UniProt P22455); settings: Compound concentration 1000.0 nM
[17] = system: Receptor-type tyrosine-protein kinase FLT3 (Homo sapiens), P36888 [R834Q]; settings: Compound concentration 1000.0 nM
[18] = target: Tyrosine-protein kinase Fyn (Homo sapiens) (UniProt P06241); settings: Compound concentration 1000.0 nM
[19] = target: Cyclin-G-associated kinase (Homo sapiens) (UniProt O14976); settings: Compound concentration 1000.0 nM
[20] = target: G protein-coupled receptor kinase 3 (Homo sapiens) (UniProt P35626); settings: Compound concentration 1000.0 nM
[21] = target: Hormonally up-regulated neu tumor-associated kinase (Homo sapiens) (UniProt P57058); settings: Compound concentration 1000.0 nM
[22] = target: Mitogen-activated protein kinase 8 (Homo sapiens) (UniProt P45983); settings: Compound concentration 1000.0 nM
[23] = target: Mitogen-activated protein kinase 9 (Homo sapiens) (UniProt P45984); settings: Compound concentration 1000.0 nM
[24] = target: Mast/stem cell growth factor receptor Kit (Homo sapiens) (UniProt P10721); settings: Compound concentration 1000.0 nM
[25] = target: Serine/threonine-protein kinase LATS1 (Homo sapiens) (UniProt O95835); settings: Compound concentration 1000.0 nM
[26] = target: Dual specificity mitogen-activated protein kinase kinase 5 (Homo sapiens) (UniProt Q13163); settings: Compound concentration 1000.0 nM
[27] = target: Tyrosine-protein kinase Mer (Homo sapiens) (UniProt Q12866); settings: Compound concentration 1000.0 nM
[28] = target: Dual specificity mitogen-activated protein kinase kinase 7 (Homo sapiens) (UniProt O14733); settings: Compound concentration 1000.0 nM
[29] = target: Serine/threonine-protein kinase 24 (Homo sapiens) (UniProt Q9Y6E0); settings: Compound concentration 1000.0 nM
[30] = target: Myosin-IIIb (Homo sapiens) (UniProt Q8WXR4); settings: Compound concentration 1000.0 nM
[31] = target: Serine/threonine-protein kinase PAK 3 (Homo sapiens) (UniProt O75914); settings: Compound concentration 1000.0 nM
[32] = target: Serine/threonine-protein kinase PAK 6 (Homo sapiens) (UniProt Q9NQU5); settings: Compound concentration 1000.0 nM
[33] = target: Cyclin-dependent kinase 18 (Homo sapiens) (UniProt Q07002); settings: Compound concentration 1000.0 nM
[34] = target: Calcium-dependent protein kinase 1 (Plasmodium falciparum) (UniProt P62344); settings: Compound concentration 1000.0 nM
[35] = target: Protein kinase C iota type (Homo sapiens) (UniProt P41743); settings: Compound concentration 1000.0 nM
[36] = target: Serine/threonine-protein kinase 35 (Homo sapiens) (UniProt Q8TDR2); settings: Compound concentration 1000.0 nM
[37] = target: High affinity nerve growth factor receptor (Homo sapiens) (UniProt P04629); settings: Compound concentration 1000.0 nM
[38] = target: NT-3 growth factor receptor (Homo sapiens) (UniProt Q16288); settings: Compound concentration 1000.0 nM
[39] = target: Transient receptor potential cation channel subfamily M member 6 (Homo sapiens) (UniProt Q9BX84); settings: Compound concentration 1000.0 nM
[40] = target: Wee1-like protein kinase 2 (Homo sapiens) (UniProt P0C1S8); settings: Compound concentration 1000.0 nM
[41] = target: 5-hydroxytryptamine receptor 2A (Homo sapiens) (UniProt P28223); settings: Compound concentration 10.0 uM
[42] = target: GABA-A receptor; anion channel (Rattus norvegicus) (UniProt O09028+P15431+P18506+P18508+P19969+P20236+P23574+P23576+P28471+P28473+P30191+P62813+P63079+P63138+Q91ZM7+Q9ES14); settings: Compound concentration 10.0 uM
[43] = target: Histamine H4 receptor (Homo sapiens) (UniProt Q9H3N8); settings: Compound concentration 10.0 uM
[44] = target: Alpha-2A adrenergic receptor (Homo sapiens) (UniProt P08913); settings: Compound concentration 10.0 uM

Chain of Serine/threonine-protein kinase PAK 6 (Homo sapiens) (Q9NQU5 whole entry, looked up): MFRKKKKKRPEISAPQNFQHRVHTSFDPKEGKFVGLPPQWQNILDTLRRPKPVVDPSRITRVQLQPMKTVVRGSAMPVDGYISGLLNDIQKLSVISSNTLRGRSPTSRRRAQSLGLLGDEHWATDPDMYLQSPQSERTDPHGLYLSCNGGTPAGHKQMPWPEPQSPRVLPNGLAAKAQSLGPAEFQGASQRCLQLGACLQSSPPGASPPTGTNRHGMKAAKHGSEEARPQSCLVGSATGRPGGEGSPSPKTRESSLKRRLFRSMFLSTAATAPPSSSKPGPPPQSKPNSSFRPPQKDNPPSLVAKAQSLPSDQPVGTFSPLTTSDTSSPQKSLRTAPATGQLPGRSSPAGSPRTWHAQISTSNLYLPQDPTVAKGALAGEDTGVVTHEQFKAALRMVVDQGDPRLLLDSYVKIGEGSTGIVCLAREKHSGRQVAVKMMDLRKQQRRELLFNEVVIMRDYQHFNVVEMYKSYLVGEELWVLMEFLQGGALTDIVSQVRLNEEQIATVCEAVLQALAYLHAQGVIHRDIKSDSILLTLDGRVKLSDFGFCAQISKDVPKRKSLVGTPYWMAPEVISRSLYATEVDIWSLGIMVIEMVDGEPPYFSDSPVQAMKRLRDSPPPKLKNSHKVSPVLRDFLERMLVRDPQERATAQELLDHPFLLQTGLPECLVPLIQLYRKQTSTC
Chain of Dual specificity mitogen-activated protein kinase kinase 5 (Homo sapiens) (Q13163 whole entry): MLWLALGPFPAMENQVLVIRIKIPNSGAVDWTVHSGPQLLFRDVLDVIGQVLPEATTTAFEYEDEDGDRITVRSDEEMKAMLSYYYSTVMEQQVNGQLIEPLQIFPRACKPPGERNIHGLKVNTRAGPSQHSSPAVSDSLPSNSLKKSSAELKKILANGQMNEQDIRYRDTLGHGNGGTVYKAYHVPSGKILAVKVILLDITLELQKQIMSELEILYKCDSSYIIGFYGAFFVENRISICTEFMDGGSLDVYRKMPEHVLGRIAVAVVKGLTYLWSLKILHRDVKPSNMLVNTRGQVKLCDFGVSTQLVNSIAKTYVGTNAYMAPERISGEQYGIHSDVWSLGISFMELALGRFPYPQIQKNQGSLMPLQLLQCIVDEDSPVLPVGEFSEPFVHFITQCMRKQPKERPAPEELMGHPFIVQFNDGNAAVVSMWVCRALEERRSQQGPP
Chain of Serine/threonine-protein kinase 35 (Homo sapiens) (Q8TDR2 whole entry): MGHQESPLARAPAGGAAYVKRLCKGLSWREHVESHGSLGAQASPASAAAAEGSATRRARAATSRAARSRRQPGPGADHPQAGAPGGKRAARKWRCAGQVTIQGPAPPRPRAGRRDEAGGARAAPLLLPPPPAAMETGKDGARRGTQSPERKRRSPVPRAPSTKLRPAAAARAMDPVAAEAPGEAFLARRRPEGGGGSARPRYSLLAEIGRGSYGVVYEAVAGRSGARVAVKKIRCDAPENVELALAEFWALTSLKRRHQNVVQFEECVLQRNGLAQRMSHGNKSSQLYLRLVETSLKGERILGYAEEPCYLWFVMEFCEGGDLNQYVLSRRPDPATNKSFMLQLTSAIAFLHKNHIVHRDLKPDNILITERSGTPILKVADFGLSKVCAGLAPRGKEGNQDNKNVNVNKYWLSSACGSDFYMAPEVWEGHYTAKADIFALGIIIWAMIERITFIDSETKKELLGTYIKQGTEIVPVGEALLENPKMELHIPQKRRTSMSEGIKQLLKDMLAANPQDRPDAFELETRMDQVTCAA
Chain of Casein kinase I isoform gamma-3 (Homo sapiens) (Q9Y6M4 whole entry, looked up, canonical isoform): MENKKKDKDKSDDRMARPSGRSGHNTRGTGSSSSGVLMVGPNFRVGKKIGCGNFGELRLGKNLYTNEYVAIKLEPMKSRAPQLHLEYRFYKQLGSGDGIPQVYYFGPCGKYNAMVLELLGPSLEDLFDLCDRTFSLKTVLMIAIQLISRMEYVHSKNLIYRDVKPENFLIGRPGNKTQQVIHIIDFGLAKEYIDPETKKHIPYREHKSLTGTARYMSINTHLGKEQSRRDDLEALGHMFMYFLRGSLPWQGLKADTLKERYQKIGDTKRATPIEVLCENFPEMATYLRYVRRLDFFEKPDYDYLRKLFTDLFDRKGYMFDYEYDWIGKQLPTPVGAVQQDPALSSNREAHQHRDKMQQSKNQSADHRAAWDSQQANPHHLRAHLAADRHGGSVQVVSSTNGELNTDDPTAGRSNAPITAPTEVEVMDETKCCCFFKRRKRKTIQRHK
Chain of Serine/threonine-protein kinase PAK 3 (Homo sapiens) (O75914 whole entry, looked up): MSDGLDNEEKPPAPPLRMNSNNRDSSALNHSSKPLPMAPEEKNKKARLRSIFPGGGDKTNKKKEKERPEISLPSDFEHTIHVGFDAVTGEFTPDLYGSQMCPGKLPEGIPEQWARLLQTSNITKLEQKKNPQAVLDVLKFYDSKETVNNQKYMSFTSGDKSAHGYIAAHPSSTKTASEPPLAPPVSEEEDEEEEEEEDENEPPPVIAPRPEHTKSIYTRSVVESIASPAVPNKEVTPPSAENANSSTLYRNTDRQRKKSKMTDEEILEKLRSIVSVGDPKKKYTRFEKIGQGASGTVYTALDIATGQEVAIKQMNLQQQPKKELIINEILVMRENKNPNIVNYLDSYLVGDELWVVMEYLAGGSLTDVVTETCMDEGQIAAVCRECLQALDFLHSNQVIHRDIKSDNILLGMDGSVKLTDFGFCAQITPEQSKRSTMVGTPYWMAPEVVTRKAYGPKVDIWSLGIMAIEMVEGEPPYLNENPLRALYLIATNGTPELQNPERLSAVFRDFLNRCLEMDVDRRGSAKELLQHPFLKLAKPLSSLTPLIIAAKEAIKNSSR
Chain of NT-3 growth factor receptor (Homo sapiens) (Q16288 32-839 limits assumed): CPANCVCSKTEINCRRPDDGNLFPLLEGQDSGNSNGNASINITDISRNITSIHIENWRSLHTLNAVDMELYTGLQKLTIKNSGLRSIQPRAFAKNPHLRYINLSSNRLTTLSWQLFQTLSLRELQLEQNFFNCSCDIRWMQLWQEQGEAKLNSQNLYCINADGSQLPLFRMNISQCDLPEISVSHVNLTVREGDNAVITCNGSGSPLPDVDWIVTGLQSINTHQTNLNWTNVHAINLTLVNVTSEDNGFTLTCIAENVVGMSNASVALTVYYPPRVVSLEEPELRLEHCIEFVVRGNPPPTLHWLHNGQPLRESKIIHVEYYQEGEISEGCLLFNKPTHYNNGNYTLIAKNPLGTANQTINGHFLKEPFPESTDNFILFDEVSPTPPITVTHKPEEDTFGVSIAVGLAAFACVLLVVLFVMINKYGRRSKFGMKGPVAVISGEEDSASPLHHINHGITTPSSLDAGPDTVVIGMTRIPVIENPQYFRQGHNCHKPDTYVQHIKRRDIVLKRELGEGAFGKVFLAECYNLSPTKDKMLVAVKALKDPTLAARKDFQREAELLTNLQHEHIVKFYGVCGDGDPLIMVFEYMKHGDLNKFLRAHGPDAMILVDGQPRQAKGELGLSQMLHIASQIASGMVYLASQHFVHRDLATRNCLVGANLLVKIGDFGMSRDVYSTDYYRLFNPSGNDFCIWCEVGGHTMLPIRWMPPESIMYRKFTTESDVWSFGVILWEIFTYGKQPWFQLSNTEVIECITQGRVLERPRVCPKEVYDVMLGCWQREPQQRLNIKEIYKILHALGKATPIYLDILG
Chain of Serine/threonine-protein kinase BRSK1 (Homo sapiens) (Q8TDC3 whole entry): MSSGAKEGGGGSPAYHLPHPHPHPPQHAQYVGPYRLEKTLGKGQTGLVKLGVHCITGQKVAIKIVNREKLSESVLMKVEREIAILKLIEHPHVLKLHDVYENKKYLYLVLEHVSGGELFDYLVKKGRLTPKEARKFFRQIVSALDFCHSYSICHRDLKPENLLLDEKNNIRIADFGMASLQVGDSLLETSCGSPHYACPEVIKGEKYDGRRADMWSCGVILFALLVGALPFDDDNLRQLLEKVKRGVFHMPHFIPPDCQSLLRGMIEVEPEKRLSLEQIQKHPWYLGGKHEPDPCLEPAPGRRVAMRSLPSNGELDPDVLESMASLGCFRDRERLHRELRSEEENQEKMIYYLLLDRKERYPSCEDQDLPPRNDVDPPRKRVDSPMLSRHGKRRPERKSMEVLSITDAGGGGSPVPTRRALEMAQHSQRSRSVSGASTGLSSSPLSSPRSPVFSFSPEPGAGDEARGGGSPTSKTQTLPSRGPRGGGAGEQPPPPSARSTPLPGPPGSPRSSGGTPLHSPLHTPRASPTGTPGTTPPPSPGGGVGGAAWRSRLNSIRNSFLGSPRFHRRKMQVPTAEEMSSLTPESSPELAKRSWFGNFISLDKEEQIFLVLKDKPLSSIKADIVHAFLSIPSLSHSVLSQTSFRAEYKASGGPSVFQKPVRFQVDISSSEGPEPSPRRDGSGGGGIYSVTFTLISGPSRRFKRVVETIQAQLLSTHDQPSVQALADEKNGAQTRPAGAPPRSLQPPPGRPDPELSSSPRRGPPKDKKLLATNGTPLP
Chain of Mitogen-activated protein kinase 9 (Homo sapiens) (P45984 whole entry, looked up): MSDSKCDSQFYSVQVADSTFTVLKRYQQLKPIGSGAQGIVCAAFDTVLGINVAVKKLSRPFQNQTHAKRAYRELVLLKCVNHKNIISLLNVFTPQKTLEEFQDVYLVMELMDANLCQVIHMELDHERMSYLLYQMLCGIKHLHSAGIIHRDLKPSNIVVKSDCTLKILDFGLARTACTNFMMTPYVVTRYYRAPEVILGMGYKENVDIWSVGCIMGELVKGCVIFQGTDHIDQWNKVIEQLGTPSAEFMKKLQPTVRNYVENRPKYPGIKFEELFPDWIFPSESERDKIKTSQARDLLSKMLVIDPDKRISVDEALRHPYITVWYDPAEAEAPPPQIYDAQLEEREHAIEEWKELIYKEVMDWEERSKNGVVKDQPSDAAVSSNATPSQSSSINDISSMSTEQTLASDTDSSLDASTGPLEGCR

## O=C(O)[C@@H]1[C@@H](Cn2nnc3ccccc3c2=O)CC[C@H]1C(=O)c1ccc(OCCC2CCOCC2)cc1 [BAY-694]
[1]
  IC50: 80 nM (not active)
[2]
  residual activity: 100%
[3]
  residual activity: 100%
[4]
  residual activity: 100%
[5]
  residual activity: 73%
[6]
  residual activity: 100%
[7]
  residual activity: 100%
[8]
  residual activity: 100%
[9]
  residual activity: 95%
[10]
  residual activity: 87%
[11]
  residual activity: 90%
[12]
  residual activity: 88%
[13]
  residual activity: 53%
[14]
  residual activity: 100%
[15]
  residual activity: 100%
[16]
  residual activity: 99%
[17]
  residual activity: 100%
[18]
  residual activity: 76%
[19]
  residual activity: 91%
[20]
  residual activity: 100%
[21]
  residual activity: 100%
[22]
  residual activity: 100%
[23]
  residual activity: 100%
[24]
  residual activity: 89%
[25]
  residual activity: 90%
[26]
  residual activity: 73%
[27]
  residual activity: 100%
[28]
  residual activity: 89%
[29]
  residual activity: 99%
[30]
  residual activity: 90%
[31]
  residual activity: 99%
[32]
  residual activity: 99%
[33]
  residual activity: 90%
[34]
  residual activity: 100%
[35]
  residual activity: 100%
[36]
  residual activity: 100%
[37]
  residual activity: 86%
[38]
  residual activity: 86%
[39]
  residual activity: 96%
[40]
  residual activity: 100%
[41]
  inhibition: 18.4%
[42]
  inhibition: 10.2%
[43]
  inhibition: 3.39%
[44]
  inhibition: 5.09%

## O=C(O)[C@H]1[C@H](Cn2nnc3ccccc3c2=O)CC[C@@H]1C(=O)c1ccc(OCCC2CCOCC2)cc1 [BAY-7598]
[1]
  IC50: 0.085 nM (active)
[2]
  residual activity: 73%
[3]
  residual activity: 78%
[4]
  residual activity: 81%
[5]
  residual activity: 97%
[6]
  residual activity: 100%
[7]
  residual activity: 87%
[8]
  residual activity: 100%
[9]
  residual activity: 83%
[10]
  residual activity: 79%
[11]
  residual activity: 93%
[12]
  residual activity: 87%
[13]
  residual activity: 40%
[14]
  residual activity: 100%
[15]
  residual activity: 100%
[16]
  residual activity: 100%
[17]
  residual activity: 96%
[18]
  residual activity: 100%
[19]
  residual activity: 100%
[20]
  residual activity: 100%
[21]
  residual activity: 71%
[22]
  residual activity: 72%
[23]
  residual activity: 79%
[24]
  residual activity: 95%
[25]
  residual activity: 84%
[26]
  residual activity: 100%
[27]
  residual activity: 61%
[28]
  residual activity: 96%
[29]
  residual activity: 90%
[30]
  residual activity: 69%
[31]
  residual activity: 86%
[32]
  residual activity: 100%
[33]
  residual activity: 84%
[34]
  residual activity: 100%
[35]
  residual activity: 66%
[36]
  residual activity: 100%
[37]
  residual activity: 88%
[38]
  residual activity: 82%
[39]
  residual activity: 100%
[40]
  residual activity: 100%
[41]
  inhibition: 16.2%
[42]
  inhibition: 7.4%
[43]
  inhibition: 1.99%
[44]
  inhibition: -5.14%

Reference: ChEMBL document CHEMBL4507264, “Data for DCP probe BAY-7598” (2021)
